Source: the supplement of paper PMC10307832

Tests used:
Assay in all cases: relative viability (nuclei count vs DMSO), 5 days (fraction); higher = more cells survive
Bortezomib + Vorinostat = compound: CC(C)C[C@H](NC(=O)[C@H](Cc1ccccc1)NC(=O)c1cnccn1)B(O)O [Bortezomib] + O=C(CCCCCCC(=O)Nc1ccccc1)NO [Vorinostat] (partner 1 µM)
How it was run: (§1)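 Lung cancer cell lines in 1536-well plates were dosed by pin tool the day after seeding, either with one drug alone or with a fixed anchor-drug dose plus five library-drug doses (not always all listed) in √10 steps. After 5 days, cells were fixed and their nuclei stained in one step (final 0.05% Triton X-100, 1% formaldehyde, 1 ug/ml Hoechst), then counted on 4× images. Relative viability is the nuclei count in treated wells divided by that in vehicle wells. Values are medians of duplicate plates.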

Obatoclax + Olaparib = compound: COC1=CC(c2cc3ccccc3[nH]2)=N/C1=C\c1[nH]c(C)cc1C [Obatoclax] + O=C(c1cc(Cc2n[nH]c(=O)c3ccccc23)ccc1F)N1CCN(C(=O)C2CC2)CC1 [Olaparib] (partner 8 µM)
How it was run: as §1

Bortezomib + Palbociclib = compound: CC(C)C[C@H](NC(=O)[C@H](Cc1ccccc1)NC(=O)c1cnccn1)B(O)O [Bortezomib] + CC(=O)c1c(C)c2cnc(Nc3ccc(N4CCNCC4)cn3)nc2n(C2CCCC2)c1=O [Palbociclib] (partner 0.5 µM)
How it was run: as §1

Obatoclax + Phenformin = compound: COC1=CC(c2cc3ccccc3[nH]2)=N/C1=C\c1[nH]c(C)cc1C [Obatoclax] + N=C(N)NC(=N)NCCc1ccccc1 [Phenformin] (partner 250 µM)
How it was run: as §1

Row | Cell Line | relative viability (Bortezomib + Vorinostat; first compound 0.0002 µM) | relative viability (Bortezomib + Vorinostat; first compound 0.000632 µM) | relative viability (Bortezomib + Vorinostat; first compound 0.002 µM) | relative viability (Bortezomib + Vorinostat; first compound 0.006325 µM) | relative viability (Bortezomib + Vorinostat; first compound 0.02 µM) | relative viability (Obatoclax + Olaparib; first compound 0.01 µM) | relative viability (Obatoclax + Olaparib; first compound 0.03162 µM) | relative viability (Obatoclax + Olaparib; first compound 0.1 µM) | relative viability (Obatoclax + Olaparib; first compound 0.3162 µM) | relative viability (Obatoclax + Olaparib; first compound 1 µM) | relative viability (Bortezomib + Palbociclib; first compound 0.0002 µM) | relative viability (Bortezomib + Palbociclib; first compound 0.000632 µM) | relative viability (Bortezomib + Palbociclib; first compound 0.002 µM) | relative viability (Bortezomib + Palbociclib; first compound 0.006325 µM) | relative viability (Bortezomib + Palbociclib; first compound 0.02 µM) | relative viability (Obatoclax + Phenformin; first compound 0.01 µM) | relative viability (Obatoclax + Phenformin; first compound 0.03162 µM) | relative viability (Obatoclax + Phenformin; first compound 0.1 µM) | relative viability (Obatoclax + Phenformin; first compound 0.3162 µM) | relative viability (Obatoclax + Phenformin; first compound 1 µM)
1 | IA-LM | 0.955 | 0.788 | 0.806 | 0.674 | 0.008 | 0.832 | 0.881 | 0.775 | 0.782 | 0.114 | – | – | – | – | – | – | – | – | – | –
2 | LC-2-ad | 0.74 | 0.68 | 0.665 | 0.209 | 0.185 | 0.693 | 0.676 | 0.732 | 0.723 | 0.648 | 0.534 | 0.499 | 0.504 | 0.278 | 0.161 | 0.637 | 0.49 | 0.541 | 0.585 | 0.499
3 | LCLC-97TM1 | 0.615 | 0.695 | 0.748 | 0.148 | 0.0598 | 0.273 | 0.38 | 0.389 | 0.293 | 0.348 | 0.235 | 0.183 | 0.12 | 0.0721 | 0.0639 | 0.417 | 0.408 | 0.458 | 0.485 | 0.421
4 | LCLC-103H | 0.791 | 0.773 | 0.827 | 0.359 | 0.236 | 0.704 | 0.745 | 0.672 | 0.745 | 0.706 | 0.475 | 0.462 | 0.419 | 0.324 | 0.254 | 0.317 | 0.28 | 0.327 | 0.321 | 0.34
5 | NCI-H596 | 0.506 | 0.614 | 0.365 | 0.219 | 0.173 | 0.671 | 0.675 | 0.552 | 0.492 | 0.458 | – | – | – | – | – | 0.768 | 0.764 | 0.741 | 0.711 | 0.583
6 | NCI-H1299 | – | – | – | – | – | 0.946 | 0.92 | 0.976 | 0.969 | 0.331 | – | – | – | – | – | – | – | – | – | –
7 | NCI-H1563 | – | – | – | – | – | – | – | – | – | – | – | – | – | – | – | 0.621 | 0.696 | 0.629 | 0.683 | 0.586
8 | NCI-H1623 | – | – | – | – | – | – | – | – | – | – | – | – | – | – | – | 0.626 | 0.578 | 0.515 | 0.598 | 0.568
9 | NCI-H1648 | 0.295 | 0.395 | 0.268 | 0.264 | 0.241 | 1.07 | 0.793 | 0.91 | 0.624 | 0.576 | 0.208 | 0.296 | 0.258 | 0.261 | 0.275 | – | – | – | – | –
10 | NCI-H1703 | – | – | – | – | – | 0.18 | 0.403 | 0.393 | 0.524 | 0.246 | – | – | – | – | – | – | – | – | – | –
11 | NCI-H1792 | – | – | – | – | – | 0.423 | 0.334 | 0.299 | 0.369 | 0.405 | 0.628 | 0.593 | 0.494 | 0.637 | 0.375 | 0.371 | – | – | 0.176 | 0.0627
